Patent US11053204B2, “Pyrimidinyloxy benzene derivatives as herbicides” (FMC Corporation, priority 2015, dated 2021)

Legend:
Type in all cases: in vivo
[1] = tested on: ragweed (common ragweed, Ambrosia elatior); assay: Test C preemergence, plant response rating; details: Ambrosia artemisiifolia, pre-emergence, Preemergence
Summary of the method: (§1)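 Visual injury score, 0 = no effect, 100 = complete control, assigned against untreated controls after 13 to 15 d in the greenhouse. Compounds were applied in a surfactant-containing non-phytotoxic solvent mix, preemergence to seeded loam/sand or silt loam soil, or postemergence to 1- to 4-leaf plants (2 to 18 cm).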

[2] = tested on: nutsedge, yellow (yellow nutsedge, Cyperus esculentus); assay: Test C preemergence, plant response rating; details: Cyperus, pre-emergence, Preemergence
Summary of the method: as §1

[3] = tested on: waterhemp (common waterhemp, Amaranthus rudis); assay: Test C preemergence, plant response rating; details: Amaranthus tuberculatus, pre-emergence, Preemergence
Summary of the method: as §1

[4] = tested on: velvetleaf (Abutilon theophrasti); assay: Test C preemergence, plant response rating; details: Abutilon theophrasti, pre-emergence, Preemergence
Summary of the method: as §1

[5] = tested on: corn (Zea mays); assay: Test C preemergence, plant response rating; details: Zea mays, pre-emergence, Preemergence
Summary of the method: as §1

[6] = tested on: morningglory (Ipomoea coccinea); assay: Test C preemergence, plant response rating; details: Ipomoea, pre-emergence, Preemergence
Summary of the method: as §1

[7] = tested on: soybean (Glycine max); assay: Test C preemergence, plant response rating; details: Glycine max, pre-emergence, Preemergence
Summary of the method: as §1

[8] = tested on: foxtail, giant (giant foxtail, Setaria faberii); assay: Test C preemergence, plant response rating; details: Setaria faberi, pre-emergence, Preemergence
Summary of the method: as §1

[9] = tested on: blackgrass (Alopecurus myosuroides); assay: Test C preemergence, plant response rating; details: Alopecurus myosuroides, pre-emergence, Preemergence
Summary of the method: as §1

[10] = tested on: ryegrass, Italian (Italian ryegrass, Lolium multiflorum); assay: Test C preemergence, plant response rating; details: Lolium multiflorum, pre-emergence, Preemergence
Summary of the method: as §1

[11] = tested on: wheat (winter wheat, Triticum aestivum); assay: Test C preemergence, plant response rating; details: Triticum aestivum, pre-emergence, Preemergence
Summary of the method: as §1

[12] = tested on: oilseed rape (Brassica napus); assay: Test C preemergence, plant response rating; details: Brassica napus, pre-emergence, Preemergence
Summary of the method: as §1

[13] = tested on: lambsquarters (Chenopodium album); assay: Test C preemergence, plant response rating; details: Chenopodium album, pre-emergence, Preemergence
Summary of the method: as §1

[14] = tested on: crabgrass, large (large crabgrass, Digitaria sanguinalis); assay: Test C preemergence, plant response rating; details: Digitaria sanguinalis, pre-emergence, Preemergence
Summary of the method: as §1

[15] = tested on: ragweed (common ragweed, Ambrosia elatior); assay: Test A preemergence, visual injury rating; details: Ambrosia artemisiifolia, pre-emergence, 240 h, 0 to 100 scale (0 no effect, 100 complete control), read-out: Ragweed plant response rating
Summary of the method: (§2)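 Visual injury scored 0–100 (100 = complete control) against untreated controls about 10 days after treatment in a greenhouse. Test chemicals, formulated with surfactant in non-phytotoxic solvent, were sprayed on soil preemergence or on 2-10 cm, one- to two-leaf plants postemergence.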

[16] = tested on: Italian ryegrass (Lolium multiflorum); assay: Test A preemergence, visual injury rating; details: Lolium multiflorum, pre-emergence, 240 h, 0 to 100 scale (0 no effect, 100 complete control), read-out: Ryegrass, Italian plant response rating
Summary of the method: as §2

[17] = tested on: pigweed (Amaranthus retroflexus); assay: Test A preemergence, visual injury rating; details: Amaranthus retroflexus, pre-emergence, 240 h, 0 to 100 scale (0 no effect, 100 complete control), read-out: Pigweed plant response rating
Summary of the method: as §2

[18] = tested on: giant foxtail (Setaria faberii); assay: Test A preemergence, visual injury rating; details: Setaria faberi, pre-emergence, 240 h, 0 to 100 scale (0 no effect, 100 complete control), read-out: Foxtail, Giant plant response rating
Summary of the method: as §2

C=CCCOC(=O)c1c(Br)cccc1Oc1ncc(Cl)cn1 [Compound 21, 3-buten-1-yl 2-bromo-6-[(5-chloro-2-pyrimidinyl)oxy]benzoate]
pest or weed control at 125 g/ha ([1]; 125 g ai/ha, scale of 0 to 100): 0% | pest or weed control at 16 g/ha ([1]; 16 g ai/ha, scale 0 to 100): 0% | pest or weed control at 31 g/ha ([1]; 31 g ai/ha, scale 0 to 100): 0% | pest or weed control at 62 g/ha ([1]; 62 g ai/ha, scale 0 to 100): 0% | pest or weed control at 125 g/ha ([2]; 125 g ai/ha, scale of 0 to 100): 0% | pest or weed control at 16 g/ha ([2]; 16 g ai/ha, scale 0 to 100): 0% | pest or weed control at 31 g/ha ([2]; 31 g ai/ha, scale 0 to 100): 0% | pest or weed control at 62 g/ha ([2]; 62 g ai/ha, scale 0 to 100): 0% | pest or weed control at 125 g/ha ([3]; 125 g ai/ha, scale of 0 to 100): 98% | pest or weed control at 16 g/ha ([3]; 16 g ai/ha, scale 0 to 100): 70% | pest or weed control at 31 g/ha ([3]; 31 g ai/ha, scale 0 to 100): 75% | pest or weed control at 62 g/ha ([3]; 62 g ai/ha, scale 0 to 100): 95% | pest or weed control at 125 g/ha ([4]; 125 g ai/ha, scale of 0 to 100): 100% | pest or weed control at 16 g/ha ([4]; 16 g ai/ha, scale 0 to 100): 10% | pest or weed control at 31 g/ha ([4]; 31 g ai/ha, scale 0 to 100): 40% | pest or weed control at 62 g/ha ([4]; 62 g ai/ha, scale 0 to 100): 70% | Corn plant response rating (crop injury, 0 = no effect, 100 = complete kill) at 62 g/ha ([5]; 62 g ai/ha, scale of 0 to 100): 5% | Corn plant response rating (crop injury, 0 = no effect, 100 = complete kill) at 125 g/ha ([5]; 125 g ai/ha, scale of 0 to 100): 20% | Corn plant response rating (crop injury, 0 = no effect, 100 = complete kill) at 16 g/ha ([5]; 16 g ai/ha, scale 0 to 100): 0% | Corn plant response rating (crop injury, 0 = no effect, 100 = complete kill) at 31 g/ha ([5]; 31 g ai/ha, scale 0 to 100): 0% | pest or weed control at 125 g/ha ([6]; 125 g ai/ha, scale of 0 to 100): 10% | pest or weed control at 16 g/ha ([6]; 16 g ai/ha, scale 0 to 100): 0% | pest or weed control at 31 g/ha ([6]; 31 g ai/ha, scale 0 to 100): 0% | pest or weed control at 62 g/ha ([6]; 62 g ai/ha, scale 0 to 100): 5% | plant injury at 125 g/ha ([7]; 125 g ai/ha, scale of 0 to 100): 0% | plant injury at 16 g/ha ([7]; 16 g ai/ha, scale 0 to 100): 0% | plant injury at 31 g/ha ([7]; 31 g ai/ha, scale 0 to 100): 0% | plant injury at 62 g/ha ([7]; 62 g ai/ha, scale 0 to 100): 0% | pest or weed control at 62 g/ha ([8]; 62 g ai/ha, scale of 0 to 100): 95% | pest or weed control at 125 g/ha ([8]; 125 g ai/ha, scale of 0 to 100): 90% | pest or weed control at 16 g/ha ([8]; 16 g ai/ha, scale 0 to 100): 20% | pest or weed control at 31 g/ha ([8]; 31 g ai/ha, scale 0 to 100): 80% | pest or weed control at 62 g/ha ([9]; 62 g ai/ha, scale of 0 to 100): 55% | pest or weed control at 125 g/ha ([9]; 125 g ai/ha, scale of 0 to 100): 90% | pest or weed control at 16 g/ha ([9]; 16 g ai/ha, scale 0 to 100): 5% | pest or weed control at 31 g/ha ([9]; 31 g ai/ha, scale 0 to 100): 35% | pest or weed control at 125 g/ha ([10]; 125 g ai/ha, scale of 0 to 100): 90% | pest or weed control at 16 g/ha ([10]; 16 g ai/ha, scale 0 to 100): 0% | pest or weed control at 31 g/ha ([10]; 31 g ai/ha, scale 0 to 100): 10% | pest or weed control at 62 g/ha ([10]; 62 g ai/ha, scale 0 to 100): 15% | plant injury at 125 g/ha ([11]; 125 g ai/ha, scale of 0 to 100): 0% | plant injury at 16 g/ha ([11]; 16 g ai/ha, scale 0 to 100): 0% | plant injury at 31 g/ha ([11]; 31 g ai/ha, scale 0 to 100): 0% | plant injury at 62 g/ha ([11]; 62 g ai/ha, scale 0 to 100): 0% | plant injury at 125 g/ha ([12]; 125 g ai/ha, scale of 0 to 100): 100% | plant injury at 16 g/ha ([12]; 16 g ai/ha, scale 0 to 100): 0% | plant injury at 31 g/ha ([12]; 31 g ai/ha, scale 0 to 100): 0% | plant injury at 62 g/ha ([12]; 62 g ai/ha, scale 0 to 100): 75% | pest or weed control at 125 g/ha ([13]; 125 g ai/ha, scale of 0 to 100): 70% | pest or weed control at 16 g/ha ([13]; 16 g ai/ha, scale 0 to 100): 0% | pest or weed control at 31 g/ha ([13]; 31 g ai/ha, scale 0 to 100): 30% | pest or weed control at 62 g/ha ([13]; 62 g ai/ha, scale 0 to 100): 25% | pest or weed control at 62 g/ha ([14]; 62 g ai/ha, scale of 0 to 100): 98% | pest or weed control at 125 g/ha ([14]; 125 g ai/ha, scale of 0 to 100): 100% | pest or weed control at 16 g/ha ([14]; 16 g ai/ha, scale 0 to 100): 20% | pest or weed control at 31 g/ha ([14]; 31 g ai/ha, scale 0 to 100): 75% | pest or weed control at 125 g/ha ([15]; 125 g ai/ha): 0% | pest or weed control at 500 g/ha ([15]; 500 g ai/ha): 0% | pest or weed control at 125 g/ha ([16]; 125 g ai/ha): 30% | pest or weed control at 500 g/ha ([16]; 500 g ai/ha): 90% | pest or weed control at 125 g/ha ([17]; 125 g ai/ha): 100% | pest or weed control at 500 g/ha ([17]; 500 g ai/ha): 100% | pest or weed control at 125 g/ha ([18]; 125 g ai/ha): 100% | pest or weed control at 500 g/ha ([18]; 500 g ai/ha): 100%
